Assay results published in the supplement of paper PMC11451515.

Test system: SEM cells
Experiment: cell viability relative to DMSO control; higher = less cytotoxic
Details: 48 h
Outline: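 Viability was expressed as a per-plate percentage of DMSO wells, with cell-free wells as background. Leukemia cells (NOMO1 or SEM at 500 cells/well, P12-Ichikawa at 1000 cells/well) were adapted for at least four passages in each medium and seeded in 1536-well plates (5 μl). Library compounds in DMSO were pin-dosed over an 11-point threefold series from 47 μM to 0.79 nM, and CellTiter-Glo One luminescence was read after 48 h at 37°C.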

[1] = HPLM + 10% dialyzed FBS, 0.000781 µM
[2] = HPLM + 10% dialyzed FBS, 0.00234 µM
[3] = HPLM + 10% dialyzed FBS, 0.00702 µM
[4] = HPLM + 10% dialyzed FBS, 0.0211 µM
[5] = HPLM + 10% dialyzed FBS, 0.0632 µM
[6] = HPLM + 10% dialyzed FBS, 0.19 µM
[7] = HPLM + 10% dialyzed FBS, 0.569 µM
[8] = HPLM + 10% dialyzed FBS, 1.71 µM
[9] = HPLM + 10% dialyzed FBS, 5.12 µM
[10] = HPLM + 10% dialyzed FBS, 15.4 µM
[11] = HPLM + 10% dialyzed FBS, 46.1 µM
[12] = RPMI 5 mM glucose + 10% FBS, 0.000781 µM
[13] = RPMI 5 mM glucose + 10% FBS, 0.00234 µM
[14] = RPMI 5 mM glucose + 10% FBS, 0.00702 µM
[15] = RPMI 5 mM glucose + 10% FBS, 0.0211 µM
[16] = RPMI 5 mM glucose + 10% FBS, 0.0632 µM
[17] = RPMI 5 mM glucose + 10% FBS, 0.19 µM
[18] = RPMI 5 mM glucose + 10% FBS, 0.569 µM
[19] = RPMI 5 mM glucose + 10% FBS, 1.71 µM
[20] = RPMI 5 mM glucose + 10% FBS, 5.12 µM
[21] = RPMI 5 mM glucose + 10% FBS, 15.4 µM
[22] = RPMI 5 mM glucose + 10% FBS, 46.1 µM
[23] = RPMI 5 mM glucose + 10% dialyzed FBS, 0.000781 µM
[24] = RPMI 5 mM glucose + 10% dialyzed FBS, 0.00234 µM
[25] = RPMI 5 mM glucose + 10% dialyzed FBS, 0.00702 µM
[26] = RPMI 5 mM glucose + 10% dialyzed FBS, 0.0211 µM
[27] = RPMI 5 mM glucose + 10% dialyzed FBS, 0.0632 µM
[28] = RPMI 5 mM glucose + 10% dialyzed FBS, 0.19 µM
[29] = RPMI 5 mM glucose + 10% dialyzed FBS, 0.569 µM
[30] = RPMI 5 mM glucose + 10% dialyzed FBS, 1.71 µM
[31] = RPMI 5 mM glucose + 10% dialyzed FBS, 5.12 µM
[32] = RPMI 5 mM glucose + 10% dialyzed FBS, 15.4 µM
[33] = RPMI 5 mM glucose + 10% dialyzed FBS, 46.1 µM

| SMILES | cell viability [1] [%] | cell viability [2] [%] | cell viability [3] [%] | cell viability [4] [%] | cell viability [5] [%] | cell viability [6] [%] | cell viability [7] [%] | cell viability [8] [%] | cell viability [9] [%] | cell viability [10] [%] | cell viability [11] [%] | cell viability [12] [%] | cell viability [13] [%] | cell viability [14] [%] | cell viability [15] [%] | cell viability [16] [%] | cell viability [17] [%] | cell viability [18] [%] | cell viability [19] [%] | cell viability [20] [%] | cell viability [21] [%] | cell viability [22] [%] | cell viability [23] [%] | cell viability [24] [%] | cell viability [25] [%] | cell viability [26] [%] | cell viability [27] [%] | cell viability [28] [%] | cell viability [29] [%] | cell viability [30] [%] | cell viability [31] [%] | cell viability [32] [%] | cell viability [33] [%] |
| --- | --- | --- | --- | --- | --- | --- | --- | --- | --- | --- | --- | --- | --- | --- | --- | --- | --- | --- | --- | --- | --- | --- | --- | --- | --- | --- | --- | --- | --- | --- | --- | --- | --- |
| OC[C@H]1O[C@@H](Oc2cc(O)cc(/C=C/c3ccc(O)cc3)c2)[C@H](O)[C@@H](O)[C@@H]1O | 71.9 | 89.5 | 97.3 | 105 | 101 | 108 | 108 | 108 | 95.4 | 116 | 115 | 79.3 | 102 | 89.7 | 104 | 97.4 | 110 | 85.7 | 102 | 117 | 119 | 104 | 86.2 | 104 | 94 | 102 | 93.2 | 104 | 102 | 119 | 114 | 117 | 114 |
| CNC(=O)C1=CC=C(C)C(=C1)N2C(=C/C(=C(/Br)C2=O)OCC3=C(F)C=C(F)C=C3)\C | 109 | 116 | 123 | 106 | 126 | 123 | 131 | 130 | 125 | 124 | 120 | 110 | 127 | 124 | 122 | 124 | 116 | 131 | 139 | 116 | 113 | 101 | 115 | 118 | 136 | 136 | 134 | 155 | 148 | 131 | 109 | 120 | 103 |
| Cc1noc(-c2ccc(CSCCC(=O)O)cc2)c1NC(=O)OC(C)c1ccccc1Cl (stereo not given) | 95.3 | 95.1 | 99.2 | 89.3 | 88.4 | 97 | 99.7 | 89.3 | 97.1 | 98.7 | 95.6 | 99.9 | 98.8 | 82.5 | 94.5 | 83.9 | 100 | 96.2 | 70.3 | 101 | 89.7 | 81.3 | 90 | 108 | 104 | 115 | 97 | 115 | 101 | 69.3 | 117 | 114 | 88.3 |
| Cc1ccc2c(c1)c1c(n2CCc2ccc(C)nc2)CCN(C)C1 | 110 | 124 | 120 | 122 | 133 | 131 | 117 | 121 | 135 | 120 | 106 | 116 | 117 | 145 | 147 | 148 | 155 | 140 | 127 | 138 | 134 | 109 |  |  |  |  |  |  |  |  |  |  |  |
| CN(C)CCN1C(=O)c2cccc3cc(N)cc(c23)C1=O | 94.4 | 89.4 | 110 | 108 | 105 | 107 | 108 | 91.1 | 51 | 30.3 | 3.64 | 70.2 | 67.3 | 71.5 | 72.1 | 73.8 | 74.1 | 62.6 | 52.4 | 32.1 | 19.3 | 2.87 | 89.5 | 95 | 98.8 | 102 | 112 | 99.3 | 106 | 92 | 60.1 | 34.6 | 3.19 |
| CN1CCN(CCCN2c3ccccc3Sc3ccc(C(F)(F)F)cc32)CC1 | 74.1 | 85.4 | 88.1 | 103 | 97.3 | 101 | 106 | 105 | 107 | 102 | 106 | 83.1 | 91.4 | 90.7 | 93.9 | 94.4 | 100 | 101 | 99.4 | 98.6 | 105 | 101 | 90.6 | 94.2 | 89.9 | 94.4 | 102 | 102 | 92.7 | 104 | 107 | 112 | 86.8 |
| CCCC1OC2C[C@H]3[C@@H]4CCC5=CC(=O)C=C[C@]5(C)[C@H]4C(O)C[C@]3(C)[C@]2(C(=O)CO)O1 (stereo not given in full) | 88.6 | 84.3 | 97.1 | 85.3 | 69 | 67 | 62.2 | 51 | 48 | 46.2 | 27.4 | 95.2 | 125 | 95.7 | 86.7 | 81.4 | 66 | 46.3 | 59.9 | 48.6 | 46.2 | 18.2 | 87.4 | 105 | 100 | 77.9 | 68.8 | 59.2 | 53.4 | 52.3 | 50.5 | 39.7 | 19.3 |
| Cc1c[nH]c(-c2cnc(NCCNc3ccc(C#N)cn3)nc2-c2ccc(Cl)cc2Cl)n1 | 62.7 | 74.5 | 62 | 65.9 | 65.2 | 70.5 | 45.3 | 71.5 | 19.6 | 26.8 | 2.9 | 74.9 | 93.6 | 70.9 | 87.6 | 85.2 | 101 | 66.9 | 86.4 | 34.9 | 68.8 | 4.99 | 70.2 | 80.9 | 59.9 | 67 | 69.6 | 72.2 | 52.9 | 84 | 24 | 33.7 | 3.76 |
| COc1cc(/C=C/C(=O)O)ccc1O | 80.5 | 92.9 | 64.5 | 93.6 | 92.8 | 90.1 | 91.9 | 106 | 44.8 | 89.9 | 100 | 94.1 | 89 | 62.1 | 84.1 | 99.5 | 94.9 | 101 | 101 | 37.5 | 88.4 | 98.1 | 93.4 | 99.2 | 68.6 | 110 | 115 | 106 | 109 | 104 | 46 | 105 | 106 |
| Nc1nc(Cl)nc2c1ncn2[C@@H]1O[C@H](CO)[C@@H](O)[C@@H]1F | 14.5 | 17 | 16.4 | 15.7 | 18 | 16.5 | 15.1 | 16.1 | 10.2 | 8.98 | 4.93 | 15.3 | 20 | 18.8 | 16.8 | 14.3 | 10.8 | 9.77 | 9.03 | 5.46 | 3.69 | 2.88 | 12.6 | 14.1 | 15.2 | 16.5 | 14 | 11.9 | 10.8 | 10.3 | 8.13 | 8.34 | 4.01 |
| OCc1ccc(-c2ccc(-c3ccc(CO)s3)o2)s1 | 117 | 118 | 94.3 | 115 | 107 | 103 | 104 | 103 | 88.6 | 77.7 | 93.8 | 87.3 | 105 | 83.8 | 81.5 | 79.1 | 87.8 | 79.3 | 80.6 | 77.1 | 61.3 | 66.7 | 114 | 124 | 95.7 | 113 | 119 | 105 | 110 | 99.4 | 83.9 | 85.8 | 114 |
| CCOc1ccc(Cc2cc([C@@H]3O[C@H](CO)[C@@H](O)[C@H](O)[C@H]3O)ccc2Cl)cc1 | 113 | 108 | 120 | 107 | 126 | 125 | 117 | 121 | 115 | 128 | 113 | 102 | 110 | 110 | 89.5 | 106 | 124 | 112 | 121 | 121 | 115 | 118 | 116 | 104 | 128 | 85.6 | 117 | 124 | 129 | 122 | 119 | 117 | 105 |
